According to US20220025058A1, “METHODS AND PHARMACEUTICAL COMPOSITIONS FOR THE TREATMENT OF ACUTE MYELOID LEUKEMIA BY ERADICATING LEUKEMIC STEM CELLS” (INSERM (INSTITUT NATIONAL DE LA SANTÉ ET DE LA RECHERCHE …, priority 2018, published 2022):
pEC50: −log10 of the molar value.

Tested on: MOLM-14 cells
Test: EC50 experiments (MTS cell viability) on MOLM-14 cells sorted from xenografted mice
Format: cell-based
Conditions: Homo sapiens, MOLM-14, 168 h, after one week of in vitro culture
Description: The day before experiment, cells were adjusted to 3×10^5 cells/ml final concentration and plated in a 96-well plate (final volume: 100 μl). To measure half-maximal inhibitory concentration (EC50), increased concentrations of AraC or idarubicin were added to the medium. After two days, 20 μl per well of MTS solution (Promega) was added for two hours and then absorbance was recorded at 490 nm with a 96-well plate reader. The doses that decrease cell viability to 50% (EC50) were analyzed Nonlinear regression log [inhibitor] vs. normalized response-variable slope with GraphPad Prism software.
After 10 days, shRNA expression was activated and the mice were treated with 30 mg/kg/day cytarabine for 5 days (FIG. 2A). […] Also MOLM-14 expressing shCTR and treated by vehicle or AraC were sorted by flow cytometry, and plated in vitro for further experiments. […] To evaluate the role of CALCRL in this chemoresistance acquired in vivo, we undertook to deplete CALCRL in these cells.

[1] = MOLM-14 shCTR cells from AraC treated group mice
[2] = MOLM-14 shCTR cells from vehicle group mice

SMILES	pEC50 [1]	pEC50 [2]
Nc1ccn([C@@H]2O[C@H](CO)[C@@H](O)[C@@H]2O)c(=O)n1 [AraC, cytarabine]	5.17	5.65
CC(=O)[C@]1(O)Cc2c(O)c3c(c(O)c2[C@@H](O[C@H]2C[C@H](N)[C@H](O)[C@H](C)O2)C1)C(=O)c1ccccc1C3=O [idarubicin]	7.22	7.54
